The source of these data is ChEMBL document CHEMBL1201862, “PubChem BioAssay data set” (2004).

Assay in all cases: NCI anticancer screen, dose series, 48 h
The test system of assay [1] is DU-145.
Assay [2] deals with EKVX.
For assay [3], the system named is HCT-15.
The subject of assay [4] is HOP-92.
For assay [5], the system named is HT-29.
In assay [6] the test system is LOX IMVI.
Assay [7] relates to M14.
Assay [8] has as its system MCF7.
In assay [9] the test system is MDA-MB-435.
Assay [10] relates to Malme-3M.
The subject of assay [11] is OVCAR-3.
Assay [12] has as its system OVCAR-8.
The subject of assay [13] is SF-268.
In assay [14] the test system is SF-295.
Assay [15] relates to SN12C.
The test system of assay [16] is SNB-19.
Assay [17] deals with SNB-75.
The test system of assay [18] is U-251.
The subject of assay [19] is UACC-62.
Assay [20] relates to UO-31.

SMILES strings stand for the structures.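 Assay format: 96-well plates, 48-hour exposure. The concentration for 50% growth inhibition is given as GI50.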 Calls of active or inactive are those of the source. Cut-off read from the data, not from the text of the source: active = GI50 up to about 1.1 µM and inactive = higher. Bounds are passed on as bounds.

On to `CN1CCCOC(c2ccc([N+](=O)[O-])cc2)O1` (configuration not stated), for which the GI50 was > 100 µM (inactive) in assay [1]; > 100 µM (inactive) in [2]; over 100 µM in assay [3]; > 100 µM (inactive) in assay [4]; > 100 µM (inactive) in assay [5]; > 100 µM (inactive) in [6]. Moreover, the GI50 in assay [7], in [8], in [9], in assay [10], in [11] and in assay [12] was > 100 µM (inactive) in each case. The GI50 in assay [13], in assay [14], in assay [15], in [16], in assay [17] and in [18] was > 100 µM (inactive) each time. Further, the GI50 in [19] and in assay [20] was > 100 µM (inactive) in each case.

As to `COc1ccc(C[C@@H]2OC3(C=CC(=O)CC3Sc3ccccc3)O[C@H]2Cc2ccc(OC)cc2)cc1` (some centres not stated), the GI50 in assay [1] was 2.23 µM (inactive); in [3], 0.993 µM; in [4], 1.14 µM (inactive); in assay [5], 1.79 µM (inactive); in assay [6], 0.458 µM (active); in assay [7] it was 1.16 µM (inactive). Moreover, the GI50 in [8] was 0.388 µM (active); in assay [9] it was 1.9 µM (inactive); in assay [10], 1.85 µM (inactive); in assay [11], 1.64 µM (inactive); in assay [12] it was 0.29 µM (active); in [13] it was 0.335 µM (active). Besides, the GI50 in assay [14] is 1.91 µM (inactive); in [15], 1.61 µM (inactive); in assay [16], 2.61 µM (inactive); in [17], 1.69 µM (inactive); in [18], 1.42 µM (inactive); in assay [19], 2.15 µM (inactive). In assay [20], the GI50 is 1.09 µM (active).

In the case of `O=C(OCCN=C1c2ccccc2CCc2ccccc21)c1ccccc1`, the GI50 is > 100 µM (inactive) in [1]; > 100 µM (inactive) in [2]; over 100 µM in [3]; > 100 µM (inactive) in assay [4]; > 100 µM (inactive) in [5]; > 100 µM (inactive) in [6]. For the same compound, the GI50 in assay [7], in assay [8], in assay [9], in assay [10], in [11] and in assay [12] was > 100 µM (inactive) throughout. The GI50 in [13], in assay [14], in [15], in [16], in assay [17] and in assay [18] was > 100 µM (inactive) each time. Also, the GI50 in [19] and in assay [20] was > 100 µM (inactive) in each case.

In the case of `CS/C1=C(\c2ccc(C)cc2)N(c2ccccc2)C(=O)C(=O)N(c2ccccc2)/C(c2ccc(C)cc2)=C(/SC)SS1`, the GI50 in assay [1] is > 100 µM (inactive); in assay [2], > 100 µM (inactive); in assay [3], over 100 µM; in [4], > 100 µM (inactive); in assay [5], > 100 µM (inactive); in assay [6] it was > 100 µM (inactive). Also, the GI50 is 82.8 µM (inactive) in assay [7]; > 100 µM (inactive) in assay [8]; > 100 µM (inactive) in assay [9]; > 100 µM (inactive) in assay [10]; > 100 µM (inactive) in assay [11]; > 100 µM (inactive) in [12]. In addition, the GI50 in assay [13], in assay [14], in assay [15], in [16], in assay [17] and in assay [18] was > 100 µM (inactive) in each case. Moreover, the GI50 in assay [19] and in [20] was > 100 µM (inactive) in each case.

With `O=C1OC(c2ccco2)=N/C1=C\c1ccc(Cl)c(Cl)c1`, the GI50 in assay [1] was 98.6 µM (inactive); in assay [2], 75.9 µM (inactive); in assay [3], over 100 µM; in assay [4] it was > 100 µM (inactive); in assay [5], > 100 µM (inactive); in [6] it was > 100 µM (inactive). Moreover, the GI50 is > 100 µM (inactive) in assay [7]; 3.67 µM (inactive) in assay [8]; > 100 µM (inactive) in [9]; 86.1 µM (inactive) in assay [10]; 89.7 µM (inactive) in assay [11]; 56.2 µM (inactive) in [12]. The GI50 in assay [13] was 59.6 µM (inactive); in assay [14], > 100 µM (inactive); in assay [15] it was > 100 µM (inactive); in assay [16], > 100 µM (inactive); in [17] it was 53.8 µM (inactive); in [18] it was 57.7 µM (inactive). The GI50 in [19] is > 100 µM (inactive).

As to `O=c1c2cccnc2[nH]c2ccc3cn[nH]c3c12`, the GI50 was > 10 µM (inactive) in [1]; 3.48 µM (inactive) in assay [2]; 9.42 µM in [3]; > 10 µM (inactive) in assay [4]; > 10 µM (inactive) in assay [5]; 5.58 µM (inactive) in assay [6]. Moreover, the GI50 was 7.14 µM (inactive) in [7]; 7.06 µM (inactive) in assay [8]; > 10 µM (inactive) in assay [9]; > 10 µM (inactive) in assay [10]; > 10 µM (inactive) in assay [11]; 6.76 µM (inactive) in assay [12]. Besides, the GI50 in [13] was > 10 µM (inactive); in [14], > 10 µM (inactive); in assay [15] it was 9.06 µM (inactive); in [16] it was > 10 µM (inactive); in [17], 7.89 µM (inactive); in [18], > 10 µM (inactive). Besides, the GI50 in [19] was > 10 µM (inactive).

For the compound `COc1ccc(C(=O)N=C2N(c3ccccc3)C(=N/c3ccccc3)/C(=N\c3ccccc3)N2c2ccccc2)cc1`, the GI50 in assay [1] is > 100 µM (inactive); in assay [2], 48.8 µM (inactive); in assay [3] it was over 100 µM; in assay [4], 2.9 µM (inactive); in [5], > 95.3 µM (inactive); in assay [6] it was 49 µM (inactive). In addition, the GI50 in assay [7] was 8.22 µM (inactive); in assay [8], > 100 µM (inactive); in [9] it was 88.3 µM (inactive); in [10], 20.6 µM (inactive); in assay [11] it was > 100 µM (inactive); in assay [12], 20 µM (inactive). The GI50 was 65.8 µM (inactive) in assay [13]; 33.3 µM (inactive) in assay [14]; > 67.1 µM (inactive) in assay [15]; 19.2 µM (inactive) in [16]; 7.82 µM (inactive) in assay [17]; 19.1 µM (inactive) in assay [18]. In addition, the results for the GI50 in [19] and in assay [20] were 37.1 µM (inactive) and > 100 µM (inactive), respectively.
